Measurements reported in EP3895702B1, “DERIVATIVE OF VALPROIC ACID AND DICHLOROACETATE USED FOR THE TREATMENT OF CANCER” (Lietuvos sveikatos mokslu universitetas, priority 2020, dated 2021).

Key:
[1] = test system: glioblastoma U87 MG tumors; assay: Invasion of glioblastoma tumor graft into chicken embryo chorioallantoic membrane (CAM) mesenchyme; type: in vivo; details: control 90.9%
Protocol: Synergistic effect of VPA and DCA on glioblastoma tumor (GB) graft on chicken embryo chorioallantoic membrane (CAM). […] Invasion into the CAM mesenchyme was detected in 50% of cases with 10 mM NaDCA treatment of GB (A-b and B). […] The incidence of invasion into the CAM mesenchyme was 9.1% in the group treated with the combination of 4 mM VPA and 5 mM DCA (A-c and B).
A - morphological changes of the chorioallantoic membrane in the groups studied: a - tumor formed from glioblastoma U87 MG cells; GB injured the integrity of the chorionic epithelium (ChE) (indicated by arrows) and invaded the CAM mesenchyme; b - GB treated with 10 mM NaDCA; no invasion of the CAM mesenchyme was detected, ChE injury already started (location marked with an arrow); c - GB treated with a combination of 4 mM VPA and 5 mM DCA; GB formed on the CAM surface, ChE integrity damaged (location marked with an arrow), CAM thinned (scale - 200 µm). […] C - fluorescence biomicroscopy of angiogenesis on the 5th day after tumor transplantation on CAM: a - untreated GB tumors, b - GB-4 mM VPA-5 mM DCA group; VPA-DCA treated tumor fluorescence is weaker compared to the control group tumor; a and b-a short arrow indicates the blood vessels attracted by the tumor, long arrow indicates a tumor (scale - 1 mm).

[2] = aqueous solution; cited from earlier work

Compound: O=C([O-])C(Cl)Cl.[Na+] [NaDCA, Sodium dichloroacetate]
- Invasion into the CAM mesenchyme (cases) ([1]; 10 mM NaDCA, n = 14): 50%

Compound: CCCC(CCC)C(=O)O [valproic acid, 2-propyl-pentanoic acid]
- ionization equilibrium constant Kr [2]: 2.2·10^-5

Compound: Magnesium dichloroacetate [MgDCA]
- Invasion rate ([1]; 5 mM MgDCA, n = 7): 14.3%
